Results reported in ChEMBL document CHEMBL1128633, “Synthesis and pharmacokinetics of potent carbamate HIV-1 protease inhibitors containing novel high affinity hydroxyethylamine isosteres” (Bioorg Med Chem Lett, 1995).
One block for each compound: values may come before it.

Columns and labels:
[1] = biological target: Human immunodeficiency virus type 1 protease (Human immunodeficiency virus 1, UniProt Q72874); assay: In vitro inhibition of HIV-1 protease.
CEM-SS = assay: Antiviral activity against HIV-1 infected HXB2/CEM-SS cell lines.; assay type: functional; conditions: Homo sapiens
[2] = Bioavailability in rat (Fisher) (fasted); assay type: ADME, organism-based; conditions: in vivo
[3] = Peak plasma level between 0.5 and 1.0 hour in Dawley rats; value ranges from 1021-2551; assay type: ADME, organism-based; conditions: Sprague-Dawley, rat, read-out: Plasma level
[4] = Cmax value was determined between 15 and 30 minutes post administration in fisher rats; value ranges from 200-500; assay type: ADME, organism-based; conditions: rat, in vivo
Rattus norvegicus = species on record: Rattus norvegicus; assay: (§1) Compound was tested for the duration that the plasma drug concentrations remained above the IC95; assay type: ADME, organism-based; conditions: in vivo
[5] = Plasma half-life following oral administration in Fisher rats; assay type: ADME, organism-based; conditions: rat
[6] = as §1; assay type: ADME, cell-free
[7] = Bioavailability in fasted fisher rats; assay type: ADME, organism-based; conditions: rat, in vivo
[8] = Plasma half-life following oral administration in fisher rats; assay type: ADME, organism-based; conditions: rat

SMILES: C[C@@H]1[C@H](OC(=O)N[C@@H](Cc2ccccc2)[C@H](O)CN2C[C@H]3CCCC[C@H]3C[C@H]2C(=O)NC(C)(C)C)CCS1(=O)=O
IC50 [1]: 10 nM | IC95 (CEM-SS): 171 nM

SMILES: C[C@H]1OCC[C@H]1OC(=O)N[C@@H](CSc1ccccc1)[C@H](O)CN1C[C@H]2CCS[C@H]2C[C@H]1C(=O)NC(C)(C)C
IC50 [1]: 3 nM | IC95 (CEM-SS): 2560 nM

SMILES: CC(C)[C@@H]1[C@H](OC(=O)N[C@@H](Cc2ccccc2)[C@H](O)CN2C[C@H]3CCS[C@H]3C[C@H]2C(=O)NC(C)(C)C)CCS1(=O)=O
IC50 [1]: 1.3 nM | IC95 (CEM-SS): 38 nM

SMILES: CC(C)[C@H]1[C@@H](OC(=O)N[C@@H](Cc2ccccc2)[C@H](O)CN2C[C@H]3CCS[C@H]3C[C@H]2C(=O)NC(C)(C)C)CCS1(=O)=O
IC50 [1]: 2.6 nM | IC95 (CEM-SS): 77 nM

SMILES: C[C@H]1[C@H](OC(=O)N[C@@H](CSc2ccccc2)[C@H](O)CN2C[C@H]3CCS[C@H]3C[C@H]2C(=O)NC(C)(C)C)CCS1(=O)=O
IC50 [1]: 1.4 nM | IC95 (CEM-SS): 44 nM

SMILES: C[C@@H]1[C@@H](OC(=O)N[C@@H](CSc2ccccc2)[C@H](O)CN2C[C@H]3CCS[C@H]3C[C@H]2C(=O)NC(C)(C)C)CCS1(=O)=O
IC50 [1]: 5.2 nM | IC95 (CEM-SS): 45 nM

bioavailability [2]: 3.5% | Cmax [3]: 1020 ng/mL | Cmax [4]: 200 ng/mL | Duration (Rattus norvegicus): 3 h | half-life [5]: 1.4 h
SMILES: CC(C)[C@@H]1[C@H](OC(=O)N[C@@H](CSc2ccccc2)[C@H](O)CN2C[C@H]3CCS[C@H]3C[C@H]2C(=O)NC(C)(C)C)CCS1(=O)=O
IC95 (CEM-SS): 9 nM

SMILES: CC(C)[C@H]1SCC[C@H]1OC(=O)N[C@@H](Cc1ccccc1)[C@H](O)CN1C[C@H]2CCS[C@H]2C[C@H]1C(=O)NC(C)(C)C
IC50 [1]: 0.26 nM | IC95 (CEM-SS): 85 nM

SMILES: CC(C)[C@@H]1SCC[C@@H]1OC(=O)N[C@@H](Cc1ccccc1)[C@H](O)CN1C[C@H]2CCS[C@H]2C[C@H]1C(=O)NC(C)(C)C
IC50 [1]: 2.6 nM | IC95 (CEM-SS): 686 nM

SMILES: CC(C)(C)NC(=O)[C@@H]1C[C@@H]2CCCC[C@@H]2CN1C[C@@H](O)[C@H](Cc1ccccc1)NC(=O)[C@H](CC(N)=O)NC(=O)c1ccc2ccccc2n1
IC95 (CEM-SS): 21 nM

SMILES: CC(C)[C@H]1[C@@H](OC(=O)N[C@@H](Cc2ccccc2)[C@H](O)CN2C[C@H]3CCCC[C@H]3C[C@H]2C(=O)NC(C)(C)C)CCS1(=O)=O
IC50 [1]: 8.1 nM | IC95 (CEM-SS): 273 nM

SMILES: CC(C)[C@H]1[C@@H](OC(=O)N[C@@H](CSc2ccccc2)[C@H](O)CN2C[C@H]3CCS[C@H]3C[C@H]2C(=O)NC(C)(C)C)CCS1(=O)=O
IC95 (CEM-SS): 89 nM

SMILES: CC(C)(C)NC(=O)[C@@H]1C[C@@H]2SCC[C@@H]2CN1C[C@@H](O)[C@H](CSc1ccccc1)NC(=O)O[C@H]1CCS(=O)(=O)C1
IC50 [1]: 1.7 nM | IC95 (CEM-SS): 59 nM

SMILES: C[C@@H]1[C@H](OC(=O)N[C@@H](CSc2ccccc2)[C@H](O)CN2C[C@H]3CCS[C@H]3C[C@H]2C(=O)NC(C)(C)C)CCS1(=O)=O
Cmax [3]: 1020 ng/mL | Cmax [4]: 200 ng/mL | IC50 [1]: 0.75 nM | Duration [6]: 5 h | bioavailability [7]: 6.3% | half-life [8]: 2.53 h | IC95 (CEM-SS): 19 nM

SMILES: C[C@@H]1OCC[C@@H]1OC(=O)N[C@@H](CSc1ccccc1)[C@H](O)CN1C[C@H]2CCS[C@H]2C[C@H]1C(=O)NC(C)(C)C
IC50 [1]: 0.28 nM | IC95 (CEM-SS): 162 nM

SMILES: CC(C)[C@@H]1[C@H](OC(=O)N[C@@H](Cc2ccccc2)[C@H](O)CN2C[C@H]3CCCC[C@H]3C[C@H]2C(=O)NC(C)(C)C)CCS1(=O)=O
IC50 [1]: 4.3 nM | IC95 (CEM-SS): 85 nM

SMILES: C[C@H]1[C@@H](OC(=O)N[C@@H](CSc2ccccc2)[C@H](O)CN2C[C@H]3CCS[C@H]3C[C@H]2C(=O)NC(C)(C)C)CCS1(=O)=O
bioavailability [2]: 7.4% | Cmax [3]: 1020 ng/mL | Cmax [4]: 200 ng/mL | Duration (Rattus norvegicus): 6 h | IC50 [1]: 0.4 nM | half-life [5]: 1.55 h | IC95 (CEM-SS): 31 nM

SMILES: CC(C)(C)NC(=O)[C@@H]1C[C@@H]2SCC[C@@H]2CN1C[C@@H](O)[C@H](CSc1ccccc1)NC(=O)O[C@@H]1CCS(=O)(=O)C1
IC50 [1]: 2 nM | IC95 (CEM-SS): 59 nM
